# Results taken from patent US9951271B2, “Process for making an asymmetric fluorophore” (UNITED STATES OF AMERICA, AS REPRESENTED BY THE SECRETARY …, priority 2015, dated 2018).
# Columns and labels:
# NIH 3T3 cells [1] = test: Live cell imaging (whole-cell staining); type: cell-based; conditions: live NIH 3T3 cells; for staining pattern compared under same conditions and concentrations: 100 nM, FIG. 3
# Procedure: (§1) NIH 3T3 cell line was obtained from ATCC (Manassas, Va.) and cultured routinely using sterile technique. Cell culture media consisted of DMEM supplemented with 10% FBS and 4 mM GlutaMax (Life Technologies). Both live and fixed cell automated microscopy was performed on a Zeiss AxioObserver Z1 (Carl Zeiss MicroImaging Inc., Jena, Germany) with an EC Plan-Neofluar 10×/0.30 Ph 1 objective (Carl Zeiss, Jena, Germany), and a Coolsnap HQ2 camera (Photometrics, Tucson, Ariz.). All fluorescent microscopy images were collected using a HE38 filter set (Carl Zeiss, Jena, Germany), a Colibri.2 LED light source at 100% intensity, and an exposure time of either 200 ms or 1 second. Performance benchmarking of the fluorescence microscope was performed daily. All imaging was done on the same day on the same microscope to decrease variations in image intensities. ImageJ (National Institutes of Health, Bethesda, Md.) was used to create figures and to determine the mean fluorescence intensity of cells.
# One day prior to imaging, NIH 3T3 cells were seeded at 10,000 cells per well in a 24-well plate (Corning Costar, TC-treated). After 24 hours of incubation (37° C., 5% CO2), the media was removed from the plate and cells were washed once with DPBS (Ca and Mg free, Life Sciences). A total of 320 μL of DPBS with glucose was added to each well, and then 40 μL of Hoechst 33342 (final concentration of 0.5 μg/mL) and 40 μL of 4 (final concentrations from 10 μM to 1 nM were tested, final DMSO concentration=0.1%) or CFSE (final concentrations from 10 μM to 1 nM were tested, final DMSO concentration=0.1%). […] Using ImageJ (National Institutes of Health, Bethesda, Md.) individual cell fluorescence intensities were measured by first segmenting the 8-bit tiff image for the 6/CFSE/FNHS channel by manually finding the minimum intensity below which object boundaries began to expand into the background (the built-in watershed algorithm was also utilized to separate touching objects). Using a histogram of object sizes, the minimal object area was chosen and pixel intensity for each of those objects were recorded. […]
# NIH 3T3 cells [2] = test: Basal cytotoxicity MTS assay (cell viability); type: cell-based; conditions: concentrations below 10 μM, 72-hour incubation, FIG. 6
# Procedure: On day one, 5,000 cells per well were plated on a clear 96-well plate (Corning Costar, TC-treated) along with several blank wells with media only. The next day, the media was replaced with 180 μL of DPBS with glucose and 20 μL of 4 (final concentrations from 30 μM to 1 nM were tested, final DMSO concentration=0.1%) and incubated for 30 minutes. The dye solution was removed from the wells and 200 μL of fresh media was added to each well in the plate. The plate was then incubated (37° C., 5% CO2) for 72 hours. Then 40 μL of MTS (Promega, CellTiter 96® AQueous One Solution Cell Proliferation Assay) was added to each well and the plate was incubated (37° C., 5% CO2) for 4 hours. The absorbance of each well at 540 nm was measured on a Synergy HT plate reader (BioTek Instruments, Inc.). All assays were performed in triplicate on three separate plates.
# [3] = Photophysical characterization (UV-Vis, fluorescence emission, relative quantum yield); type: physicochemical
# Procedure: The UV-Vis and fluorescence emission spectra were recorded on a Synergy HT (BioTek Instruments, Inc.) multi-detection microplate reader equipped with a 10 W Xe flash light source for absorbance and a 20 W tungsten quartz halogen source for fluorescence. Relative quantum yields were determined using rhodamine 6G in ddH2O as a reference while keeping instrument temperature and parameters constant. Serial dilutions of the asymmetric fluorophore (6) were made from a methanol stock; therefore, all dilutions of asymmetric fluorophore (6) were kept at 10% MeOH in water. All fluorescent spectra were intensity corrected using NIST SRM 2941 (excitation wavelength at 427 nm, scan emission monochromator from 450 nm to 650 nm using a 1 nm increment).
# NIH 3T3 cells [4] = test: Fixed cell imaging (whole-cell staining); type: cell-based; conditions: fixed NIH 3T3 cells, 1 μM
# Procedure: as §1, with “All imaging was done on the same day on the same microscope to decrease variations in image intensities.” left out
# One day prior to imaging, NIH 3T3 cells were seeded at 20,000 cells per well in a 24-well plate (Corning Costar, TC-treated). […] Using ImageJ (National Institutes of Health, Bethesda, Md.) individual cell fluorescence intensities were measured by first segmenting the 8-bit tiff image for the 4/CFSE/FNHS channel by manually finding the minimum intensity below which object boundaries began to expand into the background (the built-in watershed algorithm was also utilized to separate touching objects). […]
# [5] = Aqueous solubility of the fluorophore; type: physicochemical; conditions: pH independent, diluted to 0.1% DMSO from 100 mM DMSO stock
# Procedure: The resulting fluorophore (6) was soluble in aqueous solutions (pH independent) up to […] and was diluted down to 0.1% DMSO from a 100 mM, 100% DMSO stock solution. […] Compound (6) has a sharp fluorescence peak and high quantum yield.
"emission ([3]; 10% aqueous methanol, FIG. 1) [nm]","maximum excitation ([3]; 10% aqueous methanol, FIG. 1) [nm]","relative quantum yield ([3]; 10% aqueous methanol, reference rhodamine 6G in ddH2O)","maximum absorption ([3]; water (10% MeOH), FIG. 1 legend) [nm]","maximum excitation (excited at 500 nm) ([3]; water (10% MeOH), excited at 500 nm, FIG. 1 legend) [nm]",soluble in aqueous solutions [5],Molecule,staining pattern compared under same conditions and concentrations (NIH 3T3 cells [1]),"staining of live cells (membrane crossing, localisation) (NIH 3T3 cells [1]; 30 minutes of staining, 1 μM, FIG. 2)",change in cell viability (NIH 3T3 cells [2]),fluorescence intensity relative to FNHS (quantitative image analysis) (NIH 3T3 cells [4]; FIG. 4),"brightness by visual appearance versus FNHS (NIH 3T3 cells [4]; same conditions, FIG. 5)"
516,502,0.84,502,516,up to 1 μM,"CC1=C(CCC(=O)ON2C(=O)CCC2=O)C(C)=[N+]2C1=Cc1cccn1[B-]2(F)F [Compound 6, 4,4-difluoro-1,3-dimethyl-4-bora-3a,4a-diaza-s-indacene-2-propionic acid N-hydroxysuccinimide ester]",less diffuse staining,crossed the cell membrane and stained the cytoplasmic regions with some nuclear staining,no significant change in cell viability,three fold brighter than FNHS,appeared brighter than FNHS
,,,,,,"carboxyfluorescein succinimidyl ester [CFSE, reference compound]",more diffuse staining pattern,,,,
